Data reported in US6495336B1, “Oligopeptide derivatives for the electrochemical measurement of protease activity” (Pentapharm AG, priority 2001, dated 2002).

Key:
thrombin = target: T1, thrombin (Homo sapiens, UniProt P00734); test: Measurement of the enzymic activity of thrombin in solution (amperometric hydrolysis of substrate); assay type: biochemical; conditions: substrate c = 0.5 mmol, 1 NIH-U of thrombin, 400 mV, HEPES 50 mM pH 7.4, KCl 0.1 M, 25° C.
T1 construct: purchased Diagnotec Liestal 100-500
Procedure: 1) A Tacusell PGP201 potentiostat, software VM1, which maintains a constant potential difference between the measuring electrode and reference electrode, is used. The measuring cell used is a glass beaker with a capacity of 25 ml or 1 ml, which can receive the 3 electrodes.
2) A platinum wire with a surface area of 34 mm^2 or 3 mm^2 is used as measuring electrode.
3) A calomel electrode (SCE) is used as reference electrode at which the potentials are measured.
4) The auxiliary electrode consists of platinum wire and serves to ensure passage of the current.
5) The measured solution is stirred by a magnetic stirrer for homogenization.
Thrombin concentration: 0.5, 1.0, 2 NIH-U/ml
Buffer: HEPES buffer, 50 mM, pH 7.4, KCl, 0.1 M
For example a 0.5 mM solution of the substrate Tos-Gly-Pro-Arg 3-chloro-4-hydroxyanilide×AcOH in HEPES buffer is prepared, as is a stock solution of thrombin with 100 NIH-U/1 ml in distilled water. 1 ml of substrate solution (c=0.5 mmol) is introduced into a 1 ml measuring cell provided with 3 electrodes of the Tacusell PGP201 potentiostat, software VM1. A cycle is allowed to run potentiodynamically from −30 to 500 mV to record the zero value (10 min). For the measurement, 10 µl of thrombin solution (final concentration 1.0 NIH-U/ml) is placed in the measuring cell, […], after mixing for 30 sec, the current is recorded potentiostatically over a time of 10 min. The measurements are carried out as duplicate determination.
FIGS. 5, 6 and 7 (μA cm^2/min, T=0-5 min, at 400 mV) show the linear cleavage rates by means of 3 substrates with different electroactive groups at a thrombin concentration of 1 NIH-U and substrate concentration c=0.5 mmol: […]

[1] = Cyclic voltammogram of the substrate (electroactivity); assay type: physicochemical; conditions: c=0.5 mM in HEPES buffer, pH=7.4, 0.1 M KCl; -30 to 600 mV; 1 ml cell, electrode 3 mm^2
Excerpt: […] A measurement cycle can take place when the basic current affords sufficient accuracy. The basic current is subtracted from the measurement during the hydrolysis of a substrate or the recording of a profile of an electroactive compound.
2) Evaluation of the results: the currents recorded in the linearity range are, after subtraction of the basic current at the relevant potential, proportional to the concentration of the electroactive species during the hydrolysis. The liberated electroactive species, which is cleaved off by the substrate, is likewise proportional to the enzyme concentration employed.
3) A platinum electrode is used to record the cyclic voltammograms at concentrations of 0.25 mmol, 0.5 mmol and 1.0 mmol. HEPES, 50 mmol at pH 7.4, is used as buffer. FIGS. 1 and 2 show typical cyclic reversible plots for 4-amino-2-chlorophenol and 5-amino-8-hydroxyquinoline: recorded from −30 to 600 mV at 500 mV/min. These amperogenic substances preferably show a linear dependence of the current strength on the concentration at low potential in the region of 300 mV, with a high current strength. The system is in equilibrium in this case. A higher voltage of >400 mV is undesired because of interference with possible constituents in the blood, for example paracetamol. […]

Tos-Gly-Pro-Arg 3-chloro-4-hydroxyanilide×AcOH
Standardization: current resulting from hydrolysis of the substrate with thrombin, per cm^2 of electrode surface area in one minute (thrombin): 2 μA/cm^2 of electrode
Electroactivity of the uncleaved substrate at 400 mV [1]: no electroactivity

H-(D)-Chg-Gly-Arg 3-chloro-4-hydroxyanilide×2 TFA
Standardization: current resulting from hydrolysis of the substrate with thrombin, per cm^2 of electrode surface area in one minute (thrombin): 3 μA/cm^2 of electrode

Z-gly-pro-arg 2-chloro-4-hydroxyanilide×HCl
Standardization: current resulting from hydrolysis of the substrate with thrombin, per cm^2 of electrode surface area in one minute (thrombin): 0.5 μA/cm^2 of electrode
